In ChEMBL document CHEMBL4725228, “An aza-nucleoside, fragment-like inhibitor of the DNA repair enzyme alkyladenine glycosylase (AAG)” (Bioorg Med Chem, 2020):
pIC50: −log10 of the molar value. Activity calls are given as the source filed them. The rule behind the calls is not given here.

Target: DNA-3-methyladenine glycosylase (Homo sapiens, UniProt P29372)
Test: Inhibition of human AAG using HXO2/Loop01 oligonucleotide as substrate incubated for 2 hrs by colorimetric based microplate assay

Sequence of DNA-3-methyladenine glycosylase (P29372 whole entry): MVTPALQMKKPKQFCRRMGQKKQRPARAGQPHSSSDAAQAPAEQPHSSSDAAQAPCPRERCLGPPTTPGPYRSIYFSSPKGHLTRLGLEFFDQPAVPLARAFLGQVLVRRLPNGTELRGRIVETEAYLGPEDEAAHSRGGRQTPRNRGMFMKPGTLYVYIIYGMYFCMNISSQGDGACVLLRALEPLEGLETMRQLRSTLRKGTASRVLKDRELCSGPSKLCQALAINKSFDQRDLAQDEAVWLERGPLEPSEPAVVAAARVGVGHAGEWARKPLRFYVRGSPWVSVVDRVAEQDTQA

| SMILES | inhibition | pIC50 |
| --- | --- | --- |
| OC[C@H]1CN(Cc2ccccn2)C[C@@H]1O | Active |  |
| OC[C@H]1CN(Cc2c[nH]cn2)C[C@@H]1O |  | 3.80 |
| OC[C@H]1CN(Cc2cccnc2)C[C@@H]1O | Active |  |
| OC[C@H]1CN(Cc2ncc[nH]2)C[C@@H]1O | Active |  |
| OC[C@H]1CN(Cc2ccncc2)C[C@@H]1O | Active |  |
